Each block holds one compound with its values, some of them ahead of it.
Key:
Stomach [1] = test: Biodistribution in Albino mouse stomach at 10 uCi after 6 hr; assay type: ADME, organism-based; details: in vivo
Spleen [2] = test: Biodistribution in Albino mouse spleen at 10 uCi after 4 hr; assay type: ADME, organism-based; details: in vivo
Aspergillus flavus [3] = test: Antifungal activity against Aspergillus flavus at 50 ug/ml after seven days by agar plate method; assay type: functional; details: 168 h
Blood [4] = test: Biodistribution in Albino mouse blood at 10 uCi after 4 hr; assay type: ADME, organism-based; details: in vivo
Stomach [5] = test: Biodistribution in Albino mouse stomach at 10 uCi after 4 hr; assay type: ADME, organism-based; details: in vivo
Stomach [6] = test: Biodistribution in Albino mouse stomach at 10 uCi after 8 hr; assay type: ADME, organism-based; details: in vivo
Spleen [7] = test: Biodistribution in Albino mouse spleen at 10 uCi after 2 hr; assay type: ADME, organism-based; details: in vivo
Kidney [8] = test: Biodistribution in Albino mouse kidney at 10 uCi after 6 hr; assay type: ADME, organism-based; details: in vivo
Aspergillus niger [9] = test: Antifungal activity against Aspergillus niger at 50 ug/ml after seven days by agar plate method; assay type: functional; details: 168 h
Blood [10] = test: Biodistribution in Albino mouse blood at 10 uCi after 1 hr; assay type: ADME, organism-based; details: in vivo
Kidney [11] = test: Biodistribution in Albino mouse kidney at 10 uCi after 8 hr; assay type: ADME, organism-based; details: in vivo
Kidney [12] = test: Biodistribution in Albino mouse kidney at 10 uCi after 1 hr; assay type: ADME, organism-based; details: in vivo
Aspergillus flavus [13] = test: Antifungal activity against Aspergillus flavus at 20 ug/ml after seven days by agar plate method; assay type: functional; details: 168 h
Stomach [14] = test: Biodistribution in Albino mouse stomach at 10 uCi after 2 hr; assay type: ADME, organism-based; details: in vivo
Intestine [15] = test: Biodistribution in Albino mouse intestine at 10 uCi after 8 hr; assay type: ADME, organism-based; details: in vivo
Liver [16] = test: Biodistribution in Albino mouse liver at 10 uCi after 2 hr; assay type: ADME, organism-based; details: in vivo
Intestine [17] = test: Biodistribution in Albino mouse intestine at 10 uCi after 2 hr; assay type: ADME, organism-based; details: in vivo
Spleen [18] = test: Biodistribution in Albino mouse spleen at 10 uCi after 6 hr; assay type: ADME, organism-based; details: in vivo
Liver [19] = test: Biodistribution in Albino mouse liver at 10 uCi after 6 hr; assay type: ADME, organism-based; details: in vivo
Blood [20] = test: Biodistribution in Albino mouse blood at 10 uCi after 6 hr; assay type: ADME, organism-based; details: in vivo
Stomach [21] = test: Biodistribution in Albino mouse stomach at 10 uCi after 1 hr; assay type: ADME, organism-based; details: in vivo
Heart [22] = test: Biodistribution in Albino mouse heart at 10 uCi after 8 hr; assay type: ADME, organism-based; details: in vivo
Heart [23] = test: Biodistribution in Albino mouse heart at 10 uCi after 1 hr; assay type: ADME, organism-based; details: in vivo
Spleen [24] = test: Biodistribution in Albino mouse spleen at 10 uCi after 1 hr; assay type: ADME, organism-based; details: in vivo
Brain [25] = test: Biodistribution in Albino mouse brain at 10 uCi after 8 hr; assay type: ADME, organism-based; details: in vivo
Aspergillus niger [26] = test: Antifungal activity against Aspergillus niger at 20 ug/ml after seven days by agar plate method; assay type: functional; details: 168 h
Blood [27] = test: Biodistribution in Albino mouse blood at 10 uCi after 8 hr; assay type: ADME, organism-based; details: in vivo
Liver [28] = test: Biodistribution in Albino mouse liver at 10 uCi after 1 hr; assay type: ADME, organism-based; details: in vivo
Liver [29] = test: Biodistribution in Albino mouse liver at 10 uCi after 4 hr; assay type: ADME, organism-based; details: in vivo
Liver [30] = test: Biodistribution in Albino mouse liver at 10 uCi after 8 hr; assay type: ADME, organism-based; details: in vivo
Spleen [31] = test: Biodistribution in Albino mouse spleen at 10 uCi after 8 hr; assay type: ADME, organism-based; details: in vivo
[32] = target: T1, Cholecystokinin receptor type A (Rattus norvegicus, UniProt P30551); test: Displacement of [125I](BH)CCK8 from rat CCK1 after 30 mins by receptor binding assay
T1 sequence (P30551 whole entry): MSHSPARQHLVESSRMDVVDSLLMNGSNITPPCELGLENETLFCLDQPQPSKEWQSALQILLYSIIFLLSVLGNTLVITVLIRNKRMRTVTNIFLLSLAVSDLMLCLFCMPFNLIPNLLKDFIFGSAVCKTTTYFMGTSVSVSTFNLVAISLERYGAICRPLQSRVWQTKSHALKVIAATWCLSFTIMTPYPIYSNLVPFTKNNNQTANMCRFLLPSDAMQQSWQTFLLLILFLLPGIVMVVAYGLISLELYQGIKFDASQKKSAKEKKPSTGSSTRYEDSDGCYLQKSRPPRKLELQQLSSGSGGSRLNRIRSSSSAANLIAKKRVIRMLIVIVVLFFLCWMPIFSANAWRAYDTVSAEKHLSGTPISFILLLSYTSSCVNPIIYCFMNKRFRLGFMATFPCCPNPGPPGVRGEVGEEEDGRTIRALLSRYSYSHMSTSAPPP

Brain [33] = test: Biodistribution in Albino mouse brain at 10 uCi after 2 hr; assay type: ADME, organism-based; details: in vivo
Intestine [34] = test: Biodistribution in Albino mouse intestine at 10 uCi after 6 hr; assay type: ADME, organism-based; details: in vivo
Blood [35] = test: Biodistribution in Albino mouse blood at 10 uCi after 2 hr; assay type: ADME, organism-based; details: in vivo
Heart [36] = test: Biodistribution in Albino mouse heart at 10 uCi after 6 hr; assay type: ADME, organism-based; details: in vivo
Aspergillus niger [37] = test: Antifungal activity against Aspergillus niger at 10 ug/ml after seven days by agar plate method; assay type: functional; details: 168 h
Aspergillus flavus [38] = test: Antifungal activity against Aspergillus flavus at 10 ug/ml after seven days by agar plate method; assay type: functional; details: 168 h
Heart [39] = test: Biodistribution in Albino mouse heart at 10 uCi after 4 hr; assay type: ADME, organism-based; details: in vivo
Kidney [40] = test: Biodistribution in Albino mouse kidney at 10 uCi after 2 hr; assay type: ADME, organism-based; details: in vivo
Brain [41] = test: Biodistribution in Albino mouse brain at 10 uCi after 4 hr; assay type: ADME, organism-based; details: in vivo
Intestine [42] = test: Biodistribution in Albino mouse intestine at 10 uCi after 1 hr; assay type: ADME, organism-based; details: in vivo
Brain [43] = test: Biodistribution in Albino mouse brain at 10 uCi after 6 hr; assay type: ADME, organism-based; details: in vivo
[44] = target: T2, Cholecystokinin receptor type A (Cavia porcellus, UniProt Q63931); test: Displacement of [125I](BH)CCK8 from Guinea pig CCK1 after 30 mins by receptor binding assay
T2 sequence (Q63931 whole entry): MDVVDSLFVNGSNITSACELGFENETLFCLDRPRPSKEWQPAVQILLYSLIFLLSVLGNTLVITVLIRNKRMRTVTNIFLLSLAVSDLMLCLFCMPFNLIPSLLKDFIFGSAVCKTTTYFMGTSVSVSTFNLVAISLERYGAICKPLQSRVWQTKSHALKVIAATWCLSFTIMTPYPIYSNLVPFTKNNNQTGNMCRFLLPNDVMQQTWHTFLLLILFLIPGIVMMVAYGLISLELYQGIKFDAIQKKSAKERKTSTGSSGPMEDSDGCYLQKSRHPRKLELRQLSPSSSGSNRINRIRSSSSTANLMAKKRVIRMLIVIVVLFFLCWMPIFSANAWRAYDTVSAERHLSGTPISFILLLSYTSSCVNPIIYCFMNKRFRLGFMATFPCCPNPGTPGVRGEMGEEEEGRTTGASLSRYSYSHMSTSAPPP

Intestine [45] = test: Biodistribution in Albino mouse intestine at 10 uCi after 4 hr; assay type: ADME, organism-based; details: in vivo
Kidney [46] = test: Biodistribution in Albino mouse kidney at 10 uCi after 4 hr; assay type: ADME, organism-based; details: in vivo
Heart [47] = test: Biodistribution in Albino mouse heart at 10 uCi after 2 hr; assay type: ADME, organism-based; details: in vivo

Drug uptake (Stomach [1]): 7 % ID/g | Drug uptake (Spleen [2]): 17 % ID/g | Drug uptake (Blood [4]): 2 % ID/g | Drug uptake (Stomach [5]): 3 % ID/g | Drug uptake (Stomach [6]): 7.5 % ID/g | Drug uptake (Spleen [7]): 15 % ID/g | Drug uptake (Kidney [8]): 4.5 % ID/g | Drug uptake (Blood [10]): 2.5 % ID/g | Drug uptake (Kidney [11]): 4.5 % ID/g | Drug uptake (Kidney [12]): 5.5 % ID/g | Drug uptake (Stomach [14]): 2 % ID/g | Drug uptake (Intestine [15]): 1 % ID/g | Drug uptake (Liver [16]): 23 % ID/g | Drug uptake (Intestine [17]): 0.5 % ID/g | Drug uptake (Spleen [18]): 16 % ID/g | Drug uptake (Liver [19]): 15 % ID/g | Drug uptake (Blood [20]): 2.5 % ID/g | Drug uptake (Stomach [21]): 1 % ID/g | Drug uptake (Heart [22]): 0.2 % ID/g | Drug uptake (Heart [23]): 0.8 % ID/g | Drug uptake (Spleen [24]): 10 % ID/g | Drug uptake (Brain [25]): 1 % ID/g | Drug uptake (Blood [27]): 2.5 % ID/g | Drug uptake (Liver [28]): 16 % ID/g | Drug uptake (Liver [29]): 14 % ID/g | Drug uptake (Liver [30]): 15 % ID/g | Drug uptake (Spleen [31]): 16 % ID/g | IC50 [32]: 665 nM | Drug uptake (Brain [33]): 0.2 % ID/g | Drug uptake (Intestine [34]): 1 % ID/g | Drug uptake (Blood [35]): 2 % ID/g | Drug uptake (Heart [36]): 0.1 % ID/g | Drug uptake (Heart [39]): 0.2 % ID/g | Drug uptake (Kidney [40]): 6 % ID/g | Drug uptake (Brain [41]): 0.45 % ID/g | Drug uptake (Intestine [42]): 0.5 % ID/g | Drug uptake (Brain [43]): 1 % ID/g | IC50 [44]: 2940 nM | Drug uptake (Intestine [45]): 0.2 % ID/g | Drug uptake (Kidney [46]): 3 % ID/g | Drug uptake (Heart [47]): 0.5 % ID/g
SMILES: O=C1c2ccccc2C(=O)N1Cc1c(O)ccc2c(/C=C/c3ccc(O)cc3)cc3nc4ccccc4n3c12
inhibition at 50 µg/mL (Aspergillus flavus [3]): 92.1% | inhibition at 50 µg/mL (Aspergillus niger [9]): 83.6% | inhibition at 20 µg/mL (Aspergillus flavus [13]): 73.4% | inhibition at 20 µg/mL (Aspergillus niger [26]): 83.2% | inhibition at 10 µg/mL (Aspergillus niger [37]): 60.7% | inhibition at 10 µg/mL (Aspergillus flavus [38]): 60.8%

SMILES: C[C@@H]1[C@H](O)[C@@H](C)/C=C/C=C/C=C/C=C/C=C/C=C/C=C/[C@H](O[C@@H]2O[C@H](C)[C@@H](O)[C@H](N)[C@@H]2O)C[C@@H]2O[C@](O)(C[C@@H](O)C[C@@H](O)[C@H](O)CC[C@@H](O)C[C@@H](O)CC(=O)O[C@H]1C)C[C@H](O)[C@H]2C(=O)O [AMPHOTERICIN B]
inhibition at 20 µg/mL (Aspergillus flavus [13]): 86.4% | inhibition at 20 µg/mL (Aspergillus niger [26]): 79.9%
